Test results as given in paper PMC12691689, “Bacteria export alarmone synthetases that produce (p)ppApp and (p)ppGpp” (mBio, 2025).

Key:
Assay type in all cases: biochemical
[1] = target: T1, SaEAS (SaEAS-FLAG, secreted SaEASΔSP-FLAG) (Streptomyces albidoflavus, UniProt A0AA37FDV0); experiment: anion-exchange chromatography, competition of PPi acceptors, Km from calculated acceptor-site occupancy; conditions: 5 mM ATP, 5 mM free MgCl2, 0.1 mM MnCl2, pH 7.5, 37 °C
T1 construct: gene ScoT_12220; full-length gene with FLAG tag overexpressed (ermE* promoter) in S. albidoflavus SM254 delta-SaEAS; signal peptide cleaved on secretion; diluted spent medium used without purification
From the text: anion-exchange chromatography, competition of PPi acceptors, Km from calculated acceptor-site occupancy on SaEAS (SaEAS-FLAG, secreted SaEASΔSP-FLAG) | we then calculated the acceptor-site occupancy and Km for the non-ATP substrate

[2] = target: T1, SaEAS (SaEAS-FLAG, secreted SaEASΔSP-FLAG); experiment: anion-exchange chromatography, initial velocity of pppGpp synthesis; conditions: ATP as PPi donor; 5 mM GTP acceptor, 0.03-1 mM ATP, 5 mM free MgCl2, 0.1 mM MnCl2, pH 7.5, 37 °C, PK/PEP
[3] = target: T1, SaEAS (SaEAS-FLAG, secreted SaEASΔSP-FLAG); experiment: anion-exchange chromatography, initial velocity of pppApp synthesis; conditions: ATP as PPi acceptor (second site); 0.5-10 mM ATP as donor and acceptor, 5 mM free MgCl2, 0.1 mM MnCl2, pH 7.5, 37 °C
From the text: anion-exchange chromatography, initial velocity of pppApp synthesis on SaEAS (SaEAS-FLAG, secreted SaEASΔSP-FLAG) | the Michaelis-Menten relationship provides the Km for ATP as a PPi acceptor

[4] = target: T2, VpEAS (Vibrio parahaemolyticus, UniProt Q87Q55); experiment: anion-exchange chromatography of lysate reaction, pppGpp-2S formation; conditions: 5 mM ATPγS, 1 mM GTPγS, 10 mM MgCl2, 0.1 mM MnCl2, pH 7.5, 37 °C, 5 min
T2 construct: gene VP1295; recombinant from pET29b in E. coli BL21(DE3), cleared lysate

[5] = target: T1, SaEAS (SaEAS-FLAG, secreted SaEASΔSP-FLAG); experiment: anion-exchange chromatography, competition of PPi acceptors, Km derived from Vmax and Vmax/Km; conditions: PPi acceptor; ATP donor, 5 mM free MgCl2, 0.1 mM MnCl2, pH 7.5, 37 °C; read-out: Km, acceptor(GTP)
From the text: anion-exchange chromatography, competition of PPi acceptors, Km derived from Vmax and Vmax/Km on SaEAS (SaEAS-FLAG, secreted SaEASΔSP-FLAG) | We next used Vmax(pppGpp) to calculate Km, acceptor(GTP).

T1 sequence (A0AA37FDV0 entry or part of it, stated change not applied): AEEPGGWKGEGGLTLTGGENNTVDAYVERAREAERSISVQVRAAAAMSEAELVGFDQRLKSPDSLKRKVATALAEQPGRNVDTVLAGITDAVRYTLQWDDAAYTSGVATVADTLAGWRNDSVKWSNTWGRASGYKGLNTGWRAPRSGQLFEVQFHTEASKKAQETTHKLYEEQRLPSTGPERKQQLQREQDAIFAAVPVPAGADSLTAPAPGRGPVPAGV
T2 sequence (Q87Q55 entry or part of it): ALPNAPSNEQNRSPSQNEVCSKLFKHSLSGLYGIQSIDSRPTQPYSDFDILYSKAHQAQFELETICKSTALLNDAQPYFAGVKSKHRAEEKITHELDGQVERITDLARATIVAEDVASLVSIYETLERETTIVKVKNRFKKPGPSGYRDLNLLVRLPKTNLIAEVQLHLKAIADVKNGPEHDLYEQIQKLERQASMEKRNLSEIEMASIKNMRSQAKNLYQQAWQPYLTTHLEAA

Nc1ncnc2c1ncn2[C@@H]1O[C@H](COP(=O)(O)OP(=O)(O)O)[C@@H](O)[C@H]1O [ADP]
Km ([1]; 5 mM ADP): 930 ± 40 µM

Nc1ncnc2c1ncn2[C@@H]1O[C@H](COP(=O)(O)O)[C@@H](O)[C@H]1O [AMP]
Km ([1]; 5 mM AMP): 2200 ± 200 µM

Nc1ncnc2c1ncn2[C@@H]1O[C@H](COP(=O)(O)OP(=O)(O)OP(=O)(O)O)[C@@H](O)[C@H]1O [ATP]
Km [2]: 82 µM | Km, aceptor(ATP) [3]: 1400 µM

Nc1ncnc2c1ncn2[C@@H]1O[C@H](COP(=O)(O)OP(=O)(O)OP(O)(O)=S)[C@@H](O)[C@H]1O [ATPγS]
anion-exchange chromatography of lysate reaction, pppGpp-2S formation ([4]; PPi donor): Reactions were carried out using the non-hydrolyzable thiophosphates ATPγS and GTPγS

Nc1nc2c(ncn2[C@@H]2O[C@H](COP(=O)(O)O)[C@@H](O)[C@H]2O)c(=O)[nH]1 [GMP]
Km ([1]; 0.5 mM GMP): 64 ± 3 µM

Nc1nc2c(ncn2[C@@H]2O[C@H](COP(=O)(O)OP(=O)(O)OP(=O)(O)O)[C@@H](O)[C@H]2O)c(=O)[nH]1 [GTP]
Km [5]: 50 ± 4 µM

Nc1nc2c(ncn2[C@@H]2O[C@H](COP(=O)(O)OP(=O)(O)OP(O)(O)=S)[C@@H](O)[C@H]2O)c(=O)[nH]1 [GTPγS]
anion-exchange chromatography of lysate reaction, pppGpp-2S formation ([4]; PPi acceptor): VpEAS specifically uses GTPγS as an acceptor nucleotide to produce pppGpp-2S
